Molecules are shown by their SMILES.

For data set [1], the system named is primary cortical neuronal cultured cells. In words: Test compound cytotoxicity, MTS assay, primary cortical neuronal cultures. The format is cell-based, mouse. The settings on record: for Cytotox (% viable) Neuronal cells at 1 μM: 1 μM test compound; for Cytotox (% viable) Neuronal cells at 10 μM: 10 μM test compound. The method, then:
Assay 2. Neurotoxicity Assays
Primary Cortical Neuronal Cultures
Media was then replaced with Neurobasal media (Invitrogen Life Technologies) and B27 supplements (Invitrogen Life Technologies). Cultures were maintained at 37° C. in 5% CO2. Prior to experimentation, the culture medium was replaced with Neurobasal media and B27 minus antioxidants (Invitrogen Life Technologies).
Assay 3. MTS Assay for Cell Viability
Cell viability is determined using the MTS assay. Culture medium is replaced with fresh neurobasal medium plus B27 supplements minus antioxidants. 1/10th volume MTS solution (Cell Titre 96 Aqueous One, Promega Corporation) and incubated at 37° C., 2 hrs. 200 microliter aliquots are measured with a spectrophotometer at 560 nm.
Assay 4. Assay for Test Compound Cytoxicity
Neuronal cortical cells were cultured for five days as per Assay 2 in NB media and B27 supplement.
On day six the test compounds were added to the neuronal cell cultures in NB media and B27 supplement minus antioxidants.
Test compounds were dissolved in 100% DMSO to a concentration of 2.5 mM (10 mM if excess compound was weighed out per vial—then diluted to 2.5 mM).
Test compounds were not added directly to cells, instead they were added to a 48 well ‘Drug Plate’ as comprised below:
The Drug Plate was incubated at 37° C. for 15 mins. 200 μl of each well was added in triplicate to the corresponding cell plate. The cell plate was incubated at 37 C, for 4 days.
On completion of the assay, 1/10 volume MTS was added per well of plate (ie 25 μl/250 μl). The plates were incubated at 37 C for 2 hrs, and then absorbance was read at 560 nm.

Data set [2] has as its target T1, Aβ 1-42 (Homo sapiens, UniProt P05067).
T1 construct: The reaction solutions contained Aβ 1-42 at concentrations
As to the kind of experiment: Fluorometric H2O2 assay (inhibition of Abeta H2O2 production). Conditions: concentration required to inhibit 50% of Abeta H2O2 production; read-out: H2O2 IC50. Type of data set: biochemical. The method, then: Assay 1. Fluorometric H2O2 Assay
A fluorometric assay was used to test the ability of a test compound to inhibit hydrogen peroxide generation by Aβ in the presence of copper based on dichlorofluoroscein diacetate (DCF; Molecular Probes, Eugene Oreg.). The DCF solution (5 mM) in 100% dimethyl sulphoxide (previously purged with argon for 2 hr at 20° C.) was deacetylated in the presence of 0.25M NaOH for 30 min and neutralized at pH 7.4 to a final concentration of 1 mM. Horseradish peroxidase (HRP) stock solution was prepared to 1 μM at pH 7.4. The reactions were carried out in PBS, pH 7.4 in a 96 well plate (total volume=250 μl/well). […] The reaction mixture was incubated at 37 C for 60 min. […] H2O2 concentration may be established by comparing fluorescence with the H2O2 standards, Inhibition of Aβ H2O2 production was assayed by including a given concentration of test compound(s) in the test wells.

The subject of data set [3] is Abeta in extract of post-mortem human AD brain tissue. As to the kind of experiment: BAS: human brain amyloid solubilization assay. Type of data set: biochemical. Conditions: max effect across the concentration range, referenced to baseline PBS. The procedure: Assay 5. Human Brain Amyloid Solubilization Assay
This assay was performed in order to assess the ability of a test compound to mobilise Aβ, as an example form of amyloid, from the insoluble to the soluble phase of an extract of tissue from post mortem human AD brain.
Up to 0.5 g of plaque-bearing cortex without meninges was homogenized using a DIAX 900 homogenizer (Hendolph and Co, Kelheim, Germany) or other suitable device for three 30-second periods at full speed in 2 ml of ice-cold phosphate-buffered saline, pH 7.4. To obtain the phosphate-buffered saline-extractable fraction, the homogenate was centrifuged at 100,000×g for 30 min and the supernatant removed. Alternatively, the tissue was freeze dried then pulverized to form a powder which was then weighed out into aliquots for extraction as above. Supernatant, either freeze-dried and resuspended or in unconcentrated form, was dissolved in 200 μl of Tris-Tricine sodium dodecyl sulfate (SDS) sample buffer pH 8.3 containing 8% SDS, 10% 2-mercaptoethanol. Aliquots (10 μl) were then boiled for 10 minutes before SDS-polyacrylamide gel electrophoresis. The insoluble fraction of the cortical samples was obtained by resuspending the initial pelleted sample in 1 ml of phosphate-buffered saline, A 50-μl aliquot of this suspension was then boiled in […] of sample buffer as above.
Tris-Tricine polyacrylamide gel electrophoresis was performed by loading appropriately diluted samples on to 10% to 20% gradient gels (Novex, San Diego, Calif.) followed by transfer on to 0.2-μm nitrocellulose membrane (Bio-Rad, Hercules, Calif.). Aβ was detected by using monoclonal antibody W02, which detects residues 5 through 8, […] (or another suitable antibody) in conjunction with horseradish peroxidase-conjugated rabbit anti-mouse IgG (Dako, Denmark), and visualized by using enhanced chemiluminescence (eg ECL; Amersham Life Science, Buckinghamshire, UK). Each gel included three lanes containing 0.5, 1, and 2 ng of synthetic Aβ40 (Keck Laboratory, Yale University, New Haven, Conn.) as reference standards.
Blot films were scanned by using a suitable imaging system such as the UVP gel documentation system, and densitometry performed using suitable software, eg UVP Labworks. The dynamic range of the film/scanner was determined by using a step tablet (No. 911ST600, Kodak, Rochester N.Y.), a calibrated film exposed by the manufacturer to provided steps of known increasing intensity. The quantifiable range of signal intensity for densitometric analysis of the mono- and dimeric Aβ bands was based on the comparison with a curve obtained by scanning and densitometry of the step tablet.
All samples were analyzed at least twice, and gel loadings and dilutions were adjusted to fit within the quantifiable region of the standard curve. The proportion of ‘soluble’ to ‘insoluble’ Aβ may be used to determine the efficiency of extraction of a test compound compared with the efficiency of a known compound. The insoluble Aβ being comprised of the pelletable fraction derived from the insoluble amyloid plaque from the above cortical samples and the soluble fraction comprising monomeric and/or oligomeric soluble Aβ.

T1 sequence (P05067 672-713 limits assumed): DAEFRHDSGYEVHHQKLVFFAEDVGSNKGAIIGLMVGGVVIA

On to `Cl.Nc1ccc(O)c2ncccc12` [PB 44], for which, in data set [1], the “Cytotox (% viable) Neuronal cells at 1 μM” value is 108% and the “Cytotox (% viable) Neuronal cells at 10 μM” value was determined as 71%. In addition, in data set [2], the IC50 is more than 10000 nM. In addition, the BAS max effect in data set [3] came out at 191%.
In the case of `CN(c1ccc2cccc(O)c2n1)c1ccc2cccc(O)c2n1` [PB 56], in data set [1], the “Cytotox (% viable) Neuronal cells at 1 μM” value was found to be 80% and the “Cytotox (% viable) Neuronal cells at 10 μM” value is listed as 25%. For the same molecule, in data set [2], the IC50 was 250 nM. Further, the BAS max effect in data set [3] was determined as 311%.
Turning to `Cc1cc(C)c2cccnc2c1O` [PB 59], in data set [1], the “Cytotox (% viable) Neuronal cells at 1 μM” value was 86% and the “Cytotox (% viable) Neuronal cells at 10 μM” value came out at 85%. Besides, the IC50 in data set [2] is 700 nM. For the same molecule, the BAS max effect in data set [3] was determined as 293%.
Turning to `Oc1ccc(/C=C/c2ccc3cccc(O)c3n2)cc1` [PB 89], in data set [1], the “Cytotox (% viable) Neuronal cells at 1 μM” value is reported as 100% and the “Cytotox (% viable) Neuronal cells at 10 μM” value was found to be 75%. In addition, the IC50 in data set [2] came out at 2500 nM. For the same molecule, the BAS max effect in data set [3] was determined as 233%.
For `COc1cc(NS(=O)(=O)c2ccc(C)cc2)c2ncccc2c1` [PB 116], in that order: 81%, 60%, 500 nM and 220%.
As to `O=C(O)c1ccccc1Nc1cccc(C(F)(F)F)c1` [PB 233], the IC50 in data set [2] is more than 10000 nM. In data set [3], this molecule showed a BAS max effect of 330%.
As for `Oc1c(Br)cc(-c2ccccc2)c2cccnc12` [PB 806], in data set [1], the “Cytotox (% viable) Neuronal cells at 1 μM” value is reported as 100% and the “Cytotox (% viable) Neuronal cells at 10 μM” value is given as 97%. In addition, the half-inhibitory concentration (IC50) in data set [2] is less than 900 nM. The BAS max effect in data set [3] was found to be 311%.
As for `Oc1c(-c2ccccc2)cc(-c2ccccc2)c2cccnc12` [PB 809], in data set [1], the “Cytotox (% viable) Neuronal cells at 1 μM” value turned out to be 97% and the “Cytotox (% viable) Neuronal cells at 10 μM” value was 26%. In data set [2], the IC50 was less than 1800 nM. In data set [3], this molecule yielded a BAS max effect of 146%.
On the same counts, the results for `COc1cccc(-c2cc(Cl)c3cccnc3c2O)c1` [PB 810] are 83%, 71%, less than 700 nM and 184%.
On the same counts, the results for `COc1ccc(-c2cc(Cl)c3cccnc3c2O)cc1` [PB 814] are 97%, 31%, less than 1100 nM and 209%.
Regarding `CCCCc1ccc2ccc3ccc(CCCC)nc3c2n1` [PB 847], the half-maximal inhibitory concentration (IC50) in data set [2] is less than 2500 nM. Also, the BAS max effect in data set [3] is on record as 271%.
`Cc1ccccc1-c1cc(-c2ccccc2C)c2cccnc2c1O` [PB 852]: in data set [1], the “Cytotox (% viable) Neuronal cells at 1 μM” value was found to be 93% and the “Cytotox (% viable) Neuronal cells at 10 μM” value was found to be 34%. Also, the IC50 in data set [2] came out at 2100 nM. This molecule registered a BAS max effect in data set [3] of 220%.
Turning to `Oc1c(Br)cc(-c2cc(F)cc(F)c2)c2cccnc12` [PB 853], in data set [1], the “Cytotox (% viable) Neuronal cells at 1 μM” value is listed as “Neuronal cells: 95, 95%” and the “Cytotox (% viable) Neuronal cells at 10 μM” value is on record as “Neuronal cells: 95, 95%”. The half-maximal inhibitory concentration (IC50) in data set [2] worked out at 770 nM. The BAS max effect in data set [3] stood at 221%.
Consider `Cc1ccccc1-c1cc(Cl)c2cccnc2c1O` [PB 854], for which, in data set [1], the “Cytotox (% viable) Neuronal cells at 1 μM” value was “Neuronal cells: 100, 100%” and the “Cytotox (% viable) Neuronal cells at 10 μM” value is recorded as “Neuronal cells: 100, 100%”. The IC50 in data set [2] is 780 nM. The molecule further returned a BAS max effect in data set [3] of 520%.
As for `Cc1cccc(-c2cc(Cl)c3cccnc3c2O)c1` [PB 859], in data set [1], the “Cytotox (% viable) Neuronal cells at 1 μM” value worked out at 98% and the “Cytotox (% viable) Neuronal cells at 10 μM” value stood at 73%. In addition, the concentration for half-maximal inhibition (IC50) in data set [2] is less than 670 nM. In addition, in data set [3], the BAS max effect is recorded as 266%.
For `Oc1c(I)cc(-c2ccccc2C(F)(F)F)c2cccnc12` [PB 860], in data set [1], the “Cytotox (% viable) Neuronal cells at 1 μM” value is 91% and the “Cytotox (% viable) Neuronal cells at 10 μM” value is on record as 90%. For the same molecule, in data set [2], the IC50 was found to be 790 nM. The molecule also showed a BAS max effect in data set [3] of 160%.
For `COc1ccccc1-c1cc(-c2ccccc2OC)c2cccnc2c1O` [PB 862], in that order: 100%, 52%, less than 770 nM and 256%.
On the same counts, the results for `COc1ccccc1-c1cc(I)c(O)c2ncccc12` [PB 863] are 91%, 35%, less than 730 nM and 386%.
On the same counts, the results for `Oc1c(-c2ccccc2C(F)(F)F)cc(Cl)c2cccnc12` [PB 864] are 96%, 93%, 770 nM and 208%.
With `O=C(NC(=S)Nc1cccc2cccnc12)c1ccccc1` [PB 915], in data set [2], the IC50 amounted to 1900 nM. This molecule also displayed a BAS max effect in data set [3] of 202%.
Turning to `C1CNCCSCCN1` [PB 942], in data set [2], the half-inhibitory concentration (IC50) was less than 100 nM. In data set [3], this molecule had a BAS max effect of 220%.
In data set [3], `CCN(CC)c1ccc2cc(-c3nc4ccccc4s3)c(=O)oc2c1` [PB 981] displayed a BAS max effect of 580%.
On the same count and under the same terms, in the case of `Cc1ccc2c(c1)sc(-c1ccc(N(C)C)cc1)[n+]2C` [PB 982] it was 188%.
In the case of `Cc1ccc2nc(-c3ccc(N(C)C)cc3)sc2c1` [PB 983], the BAS max effect in data set [3] is given as 278%.
In data set [3], `CN(C)c1ccc(/C=C/c2nc3ccccc3s2)cc1` [PB 985] came in with a BAS max effect of 265%.
For the molecule `Oc1cc2cccnc2c2cccnc12` [PB 1026], in data set [2], the IC50 turned out to be 230 nM. The molecule further gave a BAS max effect in data set [3] of 186%.
In data set [3], `Oc1cccc2nc3ccccc3nc12` [PB 1027] yielded a BAS max effect of 306%.
Still for that read-out and setting: then `Cn1cnc2c(O)cccc21` [PB 1041], with 319%.
On the same count and under the same terms, in the case of `Oc1cccc2cc3ccccc3nc12` [PB 1043] it was 175%; in that of `OC1=NN=CC2C=CC=NC12` (stereo not drawn) [PB 1044], 212%; in that of `COC(=O)c1nc(Cl)c2cccnc2c1O` [PB 1045], 166%.
The same measure, in the same setting: then `COC(=O)c1nc(O)c2cccnc2c1O` [PB 1046], with 244%.
With `O=c1ccnc2c(O)cccn12` [PB 1048], the BAS max effect in data set [3] is given as 257%.
Same read-out and setting: in the case of `O=c1[nH]cnc2c(O)cccc12` [PB 1049] it was 237%.

The values are drawn from US9163018B2, “Method of treatment of age-related macular degeneration (AMD)” (Prana Biotechnology Limited, priority 2006, dated 2015).
